The GI50 is the concentration at which growth is held to half of that of the control. What is called IC50 is the concentration that gives 50% inhibition.

In assay [1] the test system is Ovarian. Briefly: NCI assay, average per cancer type. The conditions noted are these: for GI50 / CC50: Homo sapiens; for GI50: read-out: Average LOG10 GI50; for CC50: 48 h, read-out: Average LOG10 LC50.
The subject of assay [2] is SKOV3. Briefly: Microculture tetrazolium assay. The conditions noted are these: read-out: IC50. Format: cell-based.
The subject of assay [3] is HT29. Briefly: Microculture tetrazolium assay. Format: cell-based. The conditions noted are these: read-out: IC50.
Assay [4] has as its system T47D. Briefly: Microculture tetrazolium assay. The conditions noted are these: read-out: IC50. It counts as cell-based.
The test system of assay [5] is SKVLB. Put plainly: Microculture tetrazolium assay. The conditions noted are these: for IC50: SKVLB, read-out: IC50; for VLB/OV3: IC50 ratio SKVLB/SKOV3. It counts as cell-based.
Assay [6] relates to HT29. Briefly: Soft agar colony formation disk diffusion assay. Format: cell-based, human. The text has this: A more elaborate version of this fundamental assay, the soft agar colony formation disk diffusion assay was used. […] The effect of the test drug against tumoral cells could be measured by its inhibitory capacity against colony formation after the delivery of the compound, in different concentrations on an filter disk(4). A modified technique of this assay was used in order to investigate the antiproliferative activity of candidate compounds. Tumoral cells from solid tumors and ascitic lines were plated separately in a two layer agar matrix. Cell lines to be tested were suspended in an upper layer of 0.4% Noble agar (Difco#00142-01) in RPMI-1066 (Gibco#3201875) at a yield varying between 10^4 to 2×10^5 cells per 60 mm Petri dish. Plating efficiency was determined for each line in order to achieve an optimal number of colonies per dish. […] The bottom layer consisted of 0.8% Noble agar, 0.8% Tryptic Soy Broth (difco#0037001)in CMRL-1066/Fischer's. The bottom layers were used within 2 and 9 days of preparation. Plated dishes (bottom layer of agar, upper layer of cells and administered drug were incubated in humidified atmosphere at 37° C., 5% CO2 for 10-20 days depending upon the time necessary to observe adequate colonies (defined as a cell aggregate of more than 50 cells) both control and drug inhibited. Drugs were administered on a paper filter disk (Whatman No. 1) of 6.5 mm diameter placed on the upper layer at 1/3 distance from the edge of the dish. The anti-clonogenic activity of the compounds was measured as the zone of inhibition from the disk edge to the most proximal colonies. This zone of inhibition was checked on an inverted microscope (40×) and was measured with a micrometer mounted in the eyepiece. The ocular micrometer was calibrated with a stage micrometer set for a particular combination of ocular and objective lenses. […] We made a modification of the initial technique by not plating a solid tumor and a leukemia simultaneously in the same Petri dish. […] HUMAN TUMORS. […] LS180 (13) and BE1(14) were obtained from the Oncology Dept. of the Montreal General Hospital. […] Cell lines were routinely passaged twice a week by trypsinization and maintained in 25, or 75-sq. cm Falcon Plastic flasks at 37° C., 5% CO2 in humidified atmosphere. Both compounds were dissolved in DMSO (1 mg/100 ul) and brought to final volume (250 ul) with Millipore deionized sterile water. Further dilutions were made with […] volume of 25 ul of freshly prepared solution was placed on the filter disk and allowed to dry.
In general terms: A growth-free zone around the sample is the usual read-out of agar diffusion tests.

For assay [7], the system named is MATB/ADR. Put plainly: Soft agar colony formation disk diffusion assay. It counts as cell-based, rat. In outline:
(§1)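 Read-out: zone of inhibition, disk edge to most proximal colony (>50 cells), measured by ocular micrometer at 40×. Two-layer agar, 10^4 to 2×10^5 cells per dish, drug on filter disk, 37° C., 5% CO2, 10-20 days.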

Assay [8] relates to MATB.WT. Put plainly: Soft agar colony formation disk diffusion assay. It counts as cell-based, rat. In outline:
as §1

Like-named read-outs stand apart in the source and are kept apart here.

Regarding `COC(=O)C1CC2=C(C(=O)c3c(cc4ccccc4c3O)C2=O)C(O[C@H]2C[C@H](NC(=O)C(F)(F)F)[C@H](O)[C@H](C)O2)O1` (mixture of isomers) [BCH-242, (1'S,1R,3S) and (1'S, 1S,3R)-Methyl[11-hydroxy-1-2',3',6'-trideoxy-3-trifluroacetamido-L-lyxohexopyranose)-5,12-dioxo-3,4,5,12-tetrahydroanthraceno[2,3-c]pyran-3-yl]formate], the GI50 in assay [1] was 0.741 µM.

Consider `CCOC(=O)[C@@H]1CC2=C(C(=O)c3c(c(O)c4ccccc4c3OC(C)=O)C2=O)[C@@H](O)O1` (mixture of isomers) [BCH-658, (1S,3S) and (1R,3R) Ethyl[11-acetoxy-1,6-dihydroxy-5,12-dioxo-3,4,5,12-tetrahydroanthraceno (2,3-c)pyran-3-yl]formate], for which the half-inhibitory concentration (IC50) in assay [2] (Homo sapiens, SK-OV-3, SKOV3) was 11.2 µM; in assay [3] (Homo sapiens, HT-29, HT29) it was above 100 µM; in assay [4] (Homo sapiens), above 100 µM; in assay [5], above 100 µM. Moreover, the zone of inhibition in assay [6] (10 μg/DISK), in assay [6] (100 μg/DISK), in assay [7] (10 μg/DISK), in assay [7] (100 μg/DISK), in assay [8] (10 μg/DISK) and in assay [8] (100 μg/DISK) was 0 Zone Units each time. In assay [1], the CC50 is above 100 µM. Further, the GI50 in assay [1] was above 100 µM.

For `CCOC(=O)[C@@H]1CC2=C(C(=O)c3cc4ccccc4c(OC(C)=O)c3C2=O)[C@@H](O)O1` (mixture of isomers) [BCH-660, (1S,3S) and (1R,3R)-Ethyl-[6-acetoxy-1-hydroxy-5,12-dioxo-3,4,5,12-tetrahydroanthraceno (2,3-c)pyran-3-yl]formate], the half-inhibitory concentration (IC50) was 5.34 µM in assay [2] (Homo sapiens, SK-OV-3, SKOV3); 2.92 µM in assay [3] (Homo sapiens, HT-29, HT29); 6.67 µM in assay [4] (Homo sapiens); 6.49 µM in assay [5]. Further, the VLB/OV3 in assay [5] stood at 1.22. Moreover, the zone of inhibition in assay [6] (10 μg/DISK) came to 27.4 ± 4.3 Zone Units; in assay [6] (100 μg/DISK), 103.7 ± 2.1 Zone Units; in assay [7] (10 μg/DISK), 24.4 ± 8.6 Zone Units; in assay [7] (100 μg/DISK), 161.5 ± 30.4 Zone Units; in assay [8] (10 μg/DISK), 137.2 ± 21.5 Zone Units; in assay [8] (100 μg/DISK), 137.2 ± 21.5 Zone Units. In assay [1], the CC50 is 6.61 µM. Further, the concentration for 50% growth inhibition (GI50) in assay [1] was 0.955 µM.

As to `CCOC(=O)C1CC2=C(CO1)C(=O)c1cc3ccccc3c(O)c1C2=O` (stereo not drawn) [BCH-653, Ethyl(6 and 11 hydroxy-5,12-dioxo-3,4,5,12-tetrahydro-anthraceno[2,3-c]pyran-3-yl)]formate], the zone of inhibition in assay [6] (100 μg/DISK) came out at 42.7 ± 8.6 Zone Units; in assay [7] (100 μg/DISK), 0 Zone Units; in assay [8] (100 μg/DISK), 0 Zone Units. Also, the CC50 in assay [1] was above 100 µM. For the same compound, the 50% growth inhibitory concentration (GI50) in assay [1] was 38 µM.

Regarding `CCOC(=O)C1CC2=C(CO1)C(=O)c1c(c(O)c3ccccc3c1OC(C)=O)C2=O` (stereo not drawn) [BCH-654, Ethyl[11-acetoxy-6-hydroxy-5,12-dioxo-3,4,5,12-tetrahydroanthraceno(2,3-c)pyran-3-yl]formate], the IC50 in assay [2] (Homo sapiens, SK-OV-3, SKOV3) was 98.4 µM; in assay [3] (Homo sapiens, HT-29, HT29), 47.3 µM; in assay [4] (Homo sapiens) it was above 100 µM; in assay [5], 57.1 µM. The VLB/OV3 in assay [5] is given as 0.58. In addition, the zone of inhibition in assay [6] (10 μg/DISK) is 0 Zone Units; in assay [6] (100 μg/DISK), 106.5 ± 21.9 Zone Units; in assay [7] (10 μg/DISK) it was 0 Zone Units; in assay [7] (100 μg/DISK), 134.3 ± 17.3 Zone Units; in assay [8] (10 μg/DISK) it was 0 Zone Units; in assay [8] (100 μg/DISK) it was 152.5 ± 25.8 Zone Units.

As to `COC(=O)[C@@H]1CC2=C(C(=O)c3c(cc4ccccc4c3O)C2=O)[C@@H](O[C@H]2C[C@H](NC(=O)C(F)(F)F)[C@H](O)[C@H](C)O2)O1` [BCH-691, (1'S,1R,3S)-Methyl-{11-hydroxy-1-(2',3',6'-trideoxy-3'-trifluoroacetamido-4'-hydroxy-L-lyxoheoxpyranose)-5,12-dioxo-3,4,5,12-tetrahydroanthraceno[2,3-c]pyran-3-yl}formate], the 50% inhibitory concentration (IC50) was 1.27 µM in assay [2] (Homo sapiens, SK-OV-3, SKOV3); 0.301 µM in assay [3] (Homo sapiens, HT-29, HT29); 2.25 µM in assay [4] (Homo sapiens); 1.41 µM in assay [5]. For the same compound, in assay [5], the VLB/OV3 amounted to 1.11. The zone of inhibition turned out to be 137.0 ± 21.2 Zone Units in assay [6] (10 μg/DISK); 198.0 ± 21.2 Zone Units in assay [6] (100 μg/DISK); 0 Zone Units in assay [7] (10 μg/DISK); 200.0 ± 95.0 Zone Units in assay [7] (100 μg/DISK); 120.0 ± 50.5 Zone Units in assay [8] (10 μg/DISK); 380.0 ± 120.0 Zone Units in assay [8] (100 μg/DISK).

Consider `CC(=O)Oc1c2c(c(O)c3ccccc13)C(=O)C1=C(C2=O)C(O)OC(C(C)=O)C1` (stereo not drawn) [BCH-704, Methyl(11-acetoxy-1,6-dihydroxy-5,12-dioxo-3,4,5,12-tetrahydroanthraceno[2,3-c]pyran-3-yl)ketone], for which the IC50 in assay [2] (Homo sapiens, SK-OV-3, SKOV3) came to 16.4 µM; in assay [3] (Homo sapiens, HT-29, HT29) it was 10.7 µM; in assay [4] (Homo sapiens) it was 11.8 µM; in assay [5] it was 13.8 µM. Moreover, in assay [5], the VLB/OV3 came to 0.84. Further, the zone of inhibition in assay [6] (10 μg/DISK) is given as 39.6 ± 12.9 Zone Units; in assay [6] (100 μg/DISK), 152.5 ± 43.1 Zone Units; in assay [7] (10 μg/DISK) it was 320.2 ± 64.7 Zone Units; in assay [7] (100 μg/DISK), 527.4 ± 72.9 Zone Units; in assay [8] (10 μg/DISK), 198.5 ± 21.9 Zone Units; in assay [8] (100 μg/DISK), 414.8 ± 25.8 Zone Units. Further, in assay [7], the “cross resistance with adriamycin, MATB/ADR vs MATB.WT” value is “greater cytotoxicity in the resistant breast tumor cell line”.

Regarding `CCOC(=O)C1Cc2c(c(OC)c3c(c2OC)C(=O)c2ccccc2C3=O)CS1` (stereo not drawn) [BCH-717], the IC50 in assay [2] (Homo sapiens, SK-OV-3, SKOV3) was above 100 µM; in assay [3] (Homo sapiens, HT-29, HT29), above 100 µM; in assay [4] (Homo sapiens) it was above 100 µM; in assay [5] it was above 100 µM. The zone of inhibition in assay [6] (10 μg/DISK), in assay [6] (100 μg/DISK), in assay [7] (10 μg/DISK), in assay [7] (100 μg/DISK), in assay [8] (10 μg/DISK) and in assay [8] (100 μg/DISK) was 0 Zone Units in each case.

As for `CC(=O)Oc1c2c(c(O)c3ccccc13)C(=O)C1=C(CC(C(C)=O)OC1)C2=O` (stereo not drawn) [BCH-721], the half-inhibitory concentration (IC50) in assay [2] (SKOV3) turned out to be 55.8 µM; in assay [3] (HT29) it was 23.4 µM; in assay [4], 47.8 µM; in assay [5] it was 30.7 µM. Further, the VLB/OV3 in assay [5] was determined as 0.55. The zone of inhibition in assay [6] (10 μg/DISK) is recorded as 55.5 ± 8.0 Zone Units; in assay [6] (100 μg/DISK) it was 121.5 ± 43.1 Zone Units; in assay [7] (10 μg/DISK) it was 45.5 ± 21.9 Zone Units; in assay [7] (100 μg/DISK) it was 137.0 ± 21.2 Zone Units; in assay [8] (10 μg/DISK), 33.0 ± 4.2 Zone Units; in assay [8] (100 μg/DISK), 143.0 ± 12.7 Zone Units.

As for “Methyl(11-hydroxy-5,12-dioxo-3,4,5,12-tetrahydroanthraceno[2,3-c]pyran-3-yl)ketone and Methyl(5-hydroxy-5,12-dioxo-3,4,5,12-tetrahydroanthraceno[2,3-c]pyran-3-yl)ketone [BCH-687]”, the zone of inhibition is recorded as 61.0 ± 12.2 Zone Units in assay [6] (10 μg/DISK); 150.4 ± 25.3 Zone Units in assay [6] (100 μg/DISK); 69.1 ± 7.0 Zone Units in assay [7] (10 μg/DISK); 101.6 ± 35.2 Zone Units in assay [7] (100 μg/DISK); 42.7 ± 6.1 Zone Units in assay [8] (10 μg/DISK); 97.6 ± 20.0 Zone Units in assay [8] (100 μg/DISK). For the same compound, in assay [1] (Ovarian), the “Average LOG10 GI50” value was -4.94 ± 0.37 log molar.

The record behind these values is US5593970A, “Heterocyclic anthracycline analogs” (priority 1994, dated 1997).
